The target in one assay is T1, Recombinant human Src (Homo sapiens, UniProt P12931).
T1 construct: made in house; host or cells: baculovirus-insect cell system
Nature of the assay: Src tyrosine kinase activity, poly E4Y and 32P-ATP. It counts as biochemical. The procedure, abridged: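 Recombinant GST-Csk (E. coli) or baculovirus-expressed human Src assayed on poly E4Y in 0.15 M EPPS-NaOH pH 8.0, 6 mM MgCl2, 0.2 mM γ32P-ATP, 10% glycerol, 0.1% Triton X-100. Read-out is 32P incorporation into poly E4Y; for ATP variation (0–250 μM), poly E4Y held at 150 μg/ml.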

The target in another assay is T2, Csk (Homo sapiens, UniProt P41240).
T2 construct: GST (glutathione-S-transferase) (N); made in house; host or cells: E. coli (pGEX vector)
Nature of the assay: Csk tyrosine kinase activity, poly E4Y and 32P-ATP. It counts as biochemical. The following applies: screening assay, 50 μg/ml poly E4Y, 0.2 mM 32P-ATP. The method, then: Recombinant human Src was expressed using the baculovirus-insect cell system and purified as published (Budde et al., 1993 and 2000). Recombinant Csk and the FGF receptor (FGFr) were expressed as glutathione-S-transferase fusion proteins using the pGEX expression vector and E. coli, and purified as described (Sun & Budde, 1995).
The tyrosine kinase activity of Src, Csk and FGFr was determined using poly E4Y and ^32P-ATP. Briefly, enzymes were assayed in a reaction mixture consisting of 0.15 M EPPS-NaOH (pH 8.0) with 6 mM MgCl2, 0.2 mM γ^32P-ATP (0.2-0.4 mCi/μmol), 10% glycerol, 0.1% Triton X-100, and poly E4Y. Poly E4Y is a synthetic peptide whose phosphorylation is measured in this assay by the addition of the radioactively labeled phosphate from the ATP (Budde et al., 1995). […] When ATP was varied (0, 50, 100 and 250 μM), poly E4Y was kept constant at 150 μg/ml.

Where [1] appears, read: Table 2, read-out: Src IC50 (especially good inhibitors of Src).
[2] abbreviates: read-out: IC50 (preferred compounds for treatment of Src family-related disease).

Broadly, the IC50 is the concentration that inhibits the measured activity by half.

Structures are written as SMILES. Read-outs that look alike come from different tables or passages of the source. Some results are limits rather than exact numbers.

T1 sequence (P12931 whole entry): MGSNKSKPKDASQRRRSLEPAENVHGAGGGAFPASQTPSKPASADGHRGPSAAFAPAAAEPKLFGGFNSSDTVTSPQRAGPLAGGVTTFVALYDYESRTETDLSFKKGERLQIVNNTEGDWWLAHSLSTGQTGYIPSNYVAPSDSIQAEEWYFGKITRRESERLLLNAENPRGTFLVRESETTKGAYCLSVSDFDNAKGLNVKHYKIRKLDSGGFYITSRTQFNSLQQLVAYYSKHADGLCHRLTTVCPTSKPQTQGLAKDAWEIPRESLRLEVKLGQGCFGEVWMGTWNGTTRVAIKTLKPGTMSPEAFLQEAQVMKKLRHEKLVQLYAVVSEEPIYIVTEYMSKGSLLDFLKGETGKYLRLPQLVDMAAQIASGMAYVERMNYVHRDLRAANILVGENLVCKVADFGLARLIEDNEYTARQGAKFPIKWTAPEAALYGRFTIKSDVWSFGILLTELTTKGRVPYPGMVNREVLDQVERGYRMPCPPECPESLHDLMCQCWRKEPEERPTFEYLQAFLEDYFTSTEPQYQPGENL
T2 sequence (P41240 whole entry, species assumed): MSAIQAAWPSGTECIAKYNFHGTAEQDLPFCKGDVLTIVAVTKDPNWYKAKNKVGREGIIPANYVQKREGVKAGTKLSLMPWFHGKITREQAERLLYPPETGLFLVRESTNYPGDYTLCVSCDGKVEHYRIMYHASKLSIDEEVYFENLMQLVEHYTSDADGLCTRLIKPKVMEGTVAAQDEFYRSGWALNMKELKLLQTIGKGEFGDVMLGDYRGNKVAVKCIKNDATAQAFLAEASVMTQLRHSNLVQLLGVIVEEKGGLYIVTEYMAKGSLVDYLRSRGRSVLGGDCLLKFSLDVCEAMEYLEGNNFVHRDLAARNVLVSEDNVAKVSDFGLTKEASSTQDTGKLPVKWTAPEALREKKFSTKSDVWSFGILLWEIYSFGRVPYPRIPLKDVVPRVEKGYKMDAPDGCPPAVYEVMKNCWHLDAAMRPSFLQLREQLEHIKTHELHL

Consider `COc1ccccc1-c1sc2c(NN=Cc3cccnc3)ncnc2c1C` [Compound 432, 3-Pyridinecarboxaldehyde(6-(2-methoxyphenyl)-7-methylthieno[3,2-d]pyrimidin-4-yl)hydrazone], for which the values for the IC50 on Recombinant human Src (setting [1]), on Recombinant human Src (setting [2]) and against Csk were not above 2000 nM, less than 2000 nM and more than 133 µM, respectively.
The like results for `Fc1ccc(-c2cc3ncnc(NN=Cc4cccnc4)c3s2)cc1` [Compound 278, 3-Pyridinecarboxaldehyde(6-(4-fluorophenyl)thieno[3,2-d]pyrimidin-4-yl)hydrazone] were, in that order, not above 2000 nM, less than 2000 nM and more than 143 µM.
For `Cc1c(-c2ccsc2)sc2c(NN=Cc3cccnc3)ncnc12` [Compound 379, 3-Pyridinecarboxaldehyde(7-methyl-6-(3-thienyl)thieno[3,2-d]pyrimidin-4-yl)hydrazone] the same measures were not above 2000 nM, less than 2000 nM and more than 142 µM.
For the molecule `Cc1csc2c(NN=Cc3ccccc3O)ncnc12` [Compound 44], the concentration for half-maximal inhibition (IC50) at Recombinant human Src (screening assay, 50 μg/ml poly E4Y, 0.2 mM 32P-ATP, read-out: Src IC50) is more than 176000 nM; against Csk, more than 176 µM.
Take `Cc1c(-c2ccccc2)sc2c(NN=Cc3cccs3)ncnc12` [Compound 361, 2-Thiophenecarboxaldehyde(7-methyl-6-phenylthieno[3,2-d]pyrimidin-4-yl)hydrazone]: the figures for the IC50 on Recombinant human Src (setting [1]), at Recombinant human Src (setting [2]) and at Csk were not above 2000 nM, less than 2000 nM and more than 143 µM, respectively.
For `Brc1csc2c(NN=Cc3cccnc3)ncnc12` [Compound 180, 3-Pyridinecarboxaldehyde(7-bromothieno[3,2-d]pyrimidin-4-yl)hydrazone] the same measures were not above 2000 nM, less than 2000 nM and more than 150 µM.
As to `CCOc1cccc(C=NNc2ncnc3c(C)csc23)c1` [Compound 138, 3-Ethoxybenzaldehyde(7-methylthieno[3,2-d]pyrimidin-4-yl)hydrazone], the figures for the IC50 at Recombinant human Src (setting [1]), on Recombinant human Src (setting [2]) and at Csk were not above 2000 nM, less than 2000 nM and more than 160 µM, respectively.
For `COc1ccc(C=NNc2ncnc3cc(I)sc23)cc1O` [Compound 397, 3-Hydroxy-4-Methoxybenzaldehyde(6-iodothieno[3,2-d]pyrimidin-4-yl)hydrazone] the same measures were not above 2000 nM, less than 2000 nM and more than 117 µM.
The like results for `COc1ccc(C=NNc2ncnc3c(C)csc23)cc1` [Compound 14, 4-Methoxybenzaldehyde(7-methylthieno[3,2-d]pyrimidin-4-yl)hydrazone] were, in that order, not above 2000 nM, less than 2000 nM and more than 168 µM.
The like results for `Cc1c(-c2ccccc2Cl)sc2c(NN=Cc3cccs3)ncnc12` [Compound 391, 2-Thiophenecarboxaldehyde(6-(2-chlorophenyl)7-methylthieno[3,2-d]pyrimidin-4-yl)hydrazone] were, in that order, not above 2000 nM, less than 2000 nM and more than 130 µM.
Regarding `Fc1ccc(C=NNc2ncnc3cc(-c4ccccc4)sc23)cc1` [Compound 75, 4-Fluorobenzaldehyde(6-phenylthieno[3,2-d]pyrimidin-4-yl)hydrazone], the figures for the IC50 at Recombinant human Src (setting [1]), at Recombinant human Src (setting [2]) and against Csk were not above 2000 nM, less than 2000 nM and more than 144 µM, respectively.
For `COc1cc(C=NNc2ncnc3c(C)csc23)cc(OC)c1` [Compound 18, 3,5-Dimethoxybenzaldehyde(7-methylthieno[3,2-d]pyrimidin-4-yl)hydrazone] the same measures were not above 2000 nM, less than 2000 nM and more than 152 µM.
The like results for `CCCc1csc2c(NN=Cc3cccnc3)ncnc12` [Compound 264, 3-Pyridinecarboxaldehyde(7-propylthieno[3,2-d]pyrimidin-4-yl)hydrazone] were, in that order, not above 2000 nM, less than 2000 nM and more than 168 µM.
For `C(=NNc1ncnc2c1sc1ncccc12)c1cccs1` [Compound 244, 2-Thiophenecarboxaldehyde(pyrido[3′,2′:4,5]thieno[3,2-d]pyrimidin-4-yl)hydrazone] the same measures were not above 2000 nM, less than 2000 nM and more than 161 µM.
With `COc1cccc(-c2sc3c(NN=Cc4cccs4)ncnc3c2C)c1` [Compound 428, 2-Thiophenecarboxaldehyde(6-(3-methoxyphenyl)-7-methylthieno[3,2-d]pyrimidin-4-yl)hydrazone], the half-inhibitory concentration (IC50) was not above 2000 nM on Recombinant human Src (setting [1]), less than 2000 nM at Recombinant human Src (setting [2]) and more than 131 µM at Csk.
The like results for `Cc1c(-c2ccc(CO)cc2)sc2c(NN=Cc3cccnc3)ncnc12` [Compound 436, 3-Pyridinecarboxaldehyde(6-(4-hydroxymethylphenyl)-7-methylthieno[3,2-d]pyrimidin-4-yl)hydrazone] were, in that order, not above 2000 nM, less than 2000 nM and more than 133 µM.
The like results for `Cc1csc2c(NN=Cc3ccccc3)ncnc12` [Compound 7, Benzaldehyde(7-methylthieno[3,2-d]pyrimidin-4-yl)hydrazone] were, in that order, not above 2000 nM, less than 2000 nM and more than 186 µM.
The like results for `Cc1csc2c(NN=Cc3ccsc3)ncnc12` [Compound 33, 3-Thiophenecarboxaldehyde(7-methylthieno[3,2-d]pyrimidin-4-yl)hydrazone] were, in that order, not above 2000 nM, less than 2000 nM and more than 182 µM.
On to `Cc1c(-c2cccc(CO)c2)sc2c(NN=Cc3cccs3)ncnc12` [Compound 442, 2-Thiophenecarboxaldehyde(6-(3-hydroxymethylphenyl)-7-methylthieno[3,2-d]pyrimidin-4-yl)hydrazone], for which the IC50 is not above 2000 nM at Recombinant human Src (setting [1]), less than 2000 nM on Recombinant human Src (setting [2]) and more than 131 µM against Csk.
For `CCc1csc2c(NN=Cc3cccnc3)ncnc12` [Compound 257, 3-Pyridinecarboxaldehyde(7-ethylthieno[3,2-d]pyrimidin-4-yl)hydrazone] the same measures were not above 2000 nM, less than 2000 nM and more than 176 µM.
For `Cc1csc2c(NN=Cc3ccc[nH]3)ncnc12` [Compound 30, 1H-Pyrrole-2-carboxaldehyde(7-methylthieno[3,2-d]pyrimidin-4-yl)hydrazone], the IC50 on Recombinant human Src (setting [1]) is not above 2000 nM; on Recombinant human Src (setting [2]), less than 2000 nM; against Csk, more than 194 µM.
The like results for `COc1ccc(C=NNc2ncnc3c(C)c(-c4ccc(CO)cc4)sc23)cc1O` [Compound 439, 3-Hydroxy-4-methoxybenzaldehyde(6-(4-hydroxymethylphenyl)-7-methylthieno[3,2-d]pyrimidin-4-yl)hydrazone] were, in that order, not above 2000 nM, less than 2000 nM and more than 119 µM.
For `COc1cccc(-c2sc3c(NN=Cc4ccc(OC)c(O)c4)ncnc3c2C)c1` [Compound 429, 3-Hydroxy-4-methoxybenzaldehyde(6-(3-methoxyphenyl)-7-methylthieno[3,2-d]pyrimidin-4-yl)hydrazone] the same measures were not above 2000 nM, less than 2000 nM and more than 119 µM.
The like results for `Cc1csc2c(NN=Cc3ccco3)ncnc12` [Compound 31, 2-Furancarboxaldehyde(7-methylthieno[3,2-d]pyrimidin-4-yl)hydrazone] were, in that order, not above 2000 nM, less than 2000 nM and more than 194 µM.
For `Cc1csc2c(NN=Cc3cccc(O)c3)ncnc12` [Compound 32, 3-Hydroxybenzaldehyde(7-methylthieno[3,2-d]pyrimidin-4-yl)hydrazone], the 50% inhibitory concentration (IC50) on Recombinant human Src (setting [1]) is not above 2000 nM; at Recombinant human Src (setting [2]), less than 2000 nM; against Csk it was more than 176 µM.
The like results for `COc1ccc(-c2cc3ncnc(NN=Cc4ccc(OC)c(O)c4)c3s2)cc1` [Compound 408, 3-Hydroxy-4-methoxybenzaldehyde(6-(4-methoxyphenyl)thieno[3,2-d]pyrimidin-4-yl)hydrazone] were, in that order, not above 2000 nM, less than 2000 nM and more than 123 µM.
`C(=NNc1ncnc2cc(-c3ccccc3)sc12)c1ccncc1` [Compound 252, 4-Pyridinecarboxaldehyde(6-phenylthieno[3,2-d]pyrimidin-4-yl)hydrazone]: the IC50 on Recombinant human Src (setting [1]) is not above 2000 nM; on Recombinant human Src (setting [2]) it was less than 2000 nM; against Csk, more than 151 µM.
For `Cc1csc2c(NN=Cc3cccc(C#N)c3)ncnc12` [Compound 122, 3-Cyanobenzaldehyde(7-methylthieno[3,2-d]pyrimidin-4-yl)hydrazone] the same measures were not above 2000 nM, less than 2000 nM and more than 170 µM.
For `COc1ccc(C=NNc2ncnc3c(C)c(-c4ccccc4)sc23)cc1O` [Compound 362, 3-Hydroxy-4-methoxybenzaldehyde(7-methyl-6-phenylthieno[3,2-d]pyrimidin-4-yl)hydrazone] the same measures were not above 2000 nM, less than 2000 nM and more than 128 µM.

The record behind these values is patent US7285556B2, “Thienopyrimidine-based inhibitors of the src family” (Board of Regents, The University of Texas Systems, priority 2000, dated 2007).
